What all share (experiment): NCI-60 cell line screen, 48 h
The test system of assay [1] is A549.
The test system of assay [2] is HL-60.
In assay [3] the test system is KM12.
Assay [4] relates to LOX IMVI.
In assay [5] the test system is MOLT-4.
Assay [6] concerns NCI-H23.
Assay [7] deals with NCI-H460.
Assay [8] deals with OVCAR-3.
Assay [9] relates to OVCAR-4.
Assay [10] has as its system RPMI-8226.
The test system of assay [11] is SF-268.
In assay [12] the test system is SF-539.
Assay [13] relates to SK-OV-3.
The subject of assay [14] is SN12C.
Assay [15] concerns SNB-19.
Assay [16] concerns SW-620.
The test system of assay [17] is UACC-62.
Assay [18] has as its system SF-295.
Assay [19] has as its system SNB-75.
Assay [20] concerns UACC-257.

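1) Cells in 96-well plates. 2) Compound, 48 h, 5 concentrations. 3) Linear interpolation between surrounding doses. 4) Unreached endpoint = highest concentration. GI50: concentration for 50% inhibition of growth.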 Active and inactive are the calls of the source. No stated cut-off is given here; in the data, active = GI50 up to about 1.1 µM and inactive = higher.

As for `COc1c2c(c3ccccc3c1O)C1C=CC2C1` (stereo unspecified), the GI50 in [1] is 19.2 µM (inactive); in assay [2], > 10 µM (inactive); in assay [3] it was 17.6 µM (inactive); in [4], 4.48 µM (inactive); in assay [5] it was 13.2 µM (inactive); in assay [6] it was 14.6 µM (inactive). Besides, the GI50 is 18.5 µM (inactive) in assay [7]; 14.5 µM (inactive) in assay [8]; 15.4 µM (inactive) in assay [9]; > 100 µM (inactive) in assay [10]; 17.7 µM (inactive) in [11]; 14.6 µM (inactive) in assay [12]. The GI50 in assay [13] was > 10 µM (inactive); in assay [14], 15.1 µM (inactive); in assay [15] it was > 10 µM (inactive); in [16], 14.2 µM (inactive); in [17], 15.4 µM (inactive).

`COC(=O)C1=C(C)N2CCSC2(C)C(C(=O)OC)C1c1cccc(Cl)c1` (stereo unspecified): the GI50 in assay [1] is 20.4 µM (inactive); in assay [2], 12.4 µM (inactive); in [3], 18.8 µM (inactive); in [5] it was 14.6 µM (inactive); in assay [6] it was 20.5 µM (inactive); in [7] it was 18.8 µM (inactive). In addition, the GI50 in assay [8] was 15.6 µM (inactive); in assay [9], 49.7 µM (inactive); in [10], 10.3 µM (inactive); in assay [11], 18.7 µM (inactive); in assay [18] it was 13.9 µM (inactive); in assay [12] it was 11.5 µM (inactive). Further, the GI50 in assay [15] is 16.6 µM (inactive); in assay [19], 10.2 µM (inactive); in assay [16], 37.1 µM (inactive); in assay [20], 4.89 µM (inactive); in assay [17], 12.8 µM (inactive).

As to `O=C(O)C(Br)Cc1ccc2c(c1)OCO2` (stereo unspecified), the GI50 in assay [1], in assay [2], in assay [3], in assay [5], in assay [6] and in assay [7] was > 100 µM (inactive) in each case. The GI50 is > 100 µM (inactive) in assay [8]; 88.7 µM (inactive) in [9]; > 100 µM (inactive) in assay [10]; > 100 µM (inactive) in assay [11]; 55.5 µM (inactive) in assay [18]; > 100 µM (inactive) in assay [12]. Also, the GI50 in assay [13] was > 100 µM (inactive); in assay [14], > 100 µM (inactive); in [15] it was > 100 µM (inactive); in assay [19], 20.9 µM (inactive); in assay [16], > 100 µM (inactive); in assay [20], > 100 µM (inactive). Also, the GI50 in assay [17] is 62.1 µM (inactive).

`CC(=N/NC(=S)Nc1c(C)n(C)n(-c2ccccc2)c1=O)/C(C)=N\NC(=S)Nc1c(C)n(C)n(-c2ccccc2)c1=O`: the GI50 in assay [1], in assay [2], in assay [3], in assay [5], in [6] and in [7] was > 100 µM (inactive) in each case. Besides, the GI50 in assay [8], in assay [9], in [11], in assay [18], in [12] and in assay [13] was > 100 µM (inactive) throughout. Besides, the GI50 in assay [15], in assay [19], in assay [16], in assay [20] and in assay [17] was > 100 µM (inactive) each time.

Consider `CCCN(CCC)C1=Nc2ccccc2-n2cnnc2C1`, for which the GI50 in assay [1], in assay [2], in [3], in assay [4], in [5] and in assay [6] was > 100 µM (inactive) in each case. The GI50 in assay [7], in [8], in [9], in assay [10], in assay [11] and in assay [18] was > 100 µM (inactive) in each case. Moreover, the GI50 in assay [12], in [14], in assay [15], in [16] and in [17] was > 100 µM (inactive) throughout.

On to `COc1cc(CNc2nc3c(NC(C)=O)cc(C(F)(F)F)cc3nc2-c2ccccc2)cc(OC)c1OC`, for which the GI50 in [1] is > 100 µM (inactive); in assay [3], > 100 µM (inactive); in assay [4], > 100 µM (inactive); in assay [5], > 100 µM (inactive); in assay [8], > 100 µM (inactive); in assay [9], 89.5 µM (inactive). Also, the GI50 in [10], in assay [11], in assay [18], in assay [12], in assay [13] and in assay [14] was > 100 µM (inactive) in each case. Moreover, the GI50 in [15] is > 100 µM (inactive); in assay [16], > 100 µM (inactive); in assay [17] it was 39.7 µM (inactive).

Turning to `Cc1ccc(C(=O)N/N=C(\N=N\c2cccc([N+](=O)[O-])c2)c2ccc(N(C)C)cc2)cc1`, the GI50 in [1] was > 100 µM (inactive); in [2] it was 27.9 µM (inactive); in assay [3], 64.9 µM (inactive); in [4], 99.8 µM (inactive); in [5] it was 14.4 µM (inactive); in [6], > 100 µM (inactive). The GI50 is 57.7 µM (inactive) in assay [7]; 34.6 µM (inactive) in assay [8]; 24.4 µM (inactive) in assay [9]; 61.9 µM (inactive) in assay [10]; > 100 µM (inactive) in assay [11]; 48.6 µM (inactive) in [18]. The GI50 is > 100 µM (inactive) in [12]; > 100 µM (inactive) in assay [14]; 54.5 µM (inactive) in assay [15]; > 100 µM (inactive) in assay [16]; 58.3 µM (inactive) in assay [20].

For `O=C(Nc1c(Cl)cc([N+](=O)[O-])cc1Cl)/C(=N\Nc1cccc(Cl)c1)c1c(O)c2ccccc2oc1=O`, the GI50 was > 100 µM (inactive) in assay [1]; 71.9 µM (inactive) in assay [2]; > 100 µM (inactive) in [3]; > 100 µM (inactive) in assay [5]; 62.7 µM (inactive) in assay [6]; > 100 µM (inactive) in assay [7]. The GI50 in [8] was > 100 µM (inactive); in assay [9], > 100 µM (inactive); in [10] it was 50 µM (inactive); in assay [11], 69.8 µM (inactive); in assay [18], > 100 µM (inactive); in [12] it was > 100 µM (inactive). Further, the GI50 in [13] is > 100 µM (inactive); in assay [14], 34.2 µM (inactive); in assay [15] it was 87.1 µM (inactive); in [16], > 100 µM (inactive); in assay [20] it was > 100 µM (inactive); in assay [17], 89.5 µM (inactive).

On to `C/C(N)=N/OCc1nc(C)no1`, for which the GI50 in assay [1], in [2], in [3], in [5], in assay [6] and in assay [7] was > 100 µM (inactive) in each case. The GI50 in assay [8], in [9], in assay [10], in assay [11], in [18] and in [12] was > 100 µM (inactive) in each case. Also, the GI50 in assay [13], in assay [14], in assay [15], in [19], in [16] and in assay [20] was > 100 µM (inactive) in each case. For the same molecule, the GI50 in [17] was > 100 µM (inactive).

As to `CC1CC2C3CCC4=CC(=O)C=CC4(C)C3(F)C(O)CC2(C)C1(O)C(=O)COP(=O)(O)O` (stereo unspecified), the GI50 in [1] is > 100 µM (inactive); in [2], > 100 µM (inactive); in assay [3], > 100 µM (inactive); in assay [4], > 100 µM (inactive); in [5], > 62.7 µM (inactive); in assay [6], > 100 µM (inactive). Moreover, the GI50 is > 100 µM (inactive) in [7]; > 100 µM (inactive) in [8]; > 100 µM (inactive) in assay [9]; 3.42 µM (inactive) in [10]; > 100 µM (inactive) in [11]; > 100 µM (inactive) in assay [18]. Besides, the GI50 in assay [12], in assay [15], in [19], in assay [16], in [20] and in [17] was > 100 µM (inactive) throughout.

Regarding `CC1=C(CO)C(=O)O[C@@H]([C@@H](C)[C@H]2CC[C@H]3[C@@H]4C[C@H]5O[C@]56[C@@H](O)C=CC(=O)[C@]6(C)[C@H]4CC[C@]23C)C1` [WITHAFERIN A], the GI50 in assay [1] was 3.31 µM (inactive); in assay [2], 0.0394 µM (active); in assay [3], 3.72 µM (inactive); in [5], 0.187 µM (active); in [6], 0.221 µM (active); in assay [7], 2.91 µM (inactive). Moreover, the GI50 in assay [8] was 1.05 µM (active); in assay [9], 0.566 µM (active); in assay [10] it was 0.247 µM (active); in [11], 0.352 µM (active); in assay [18], 4.22 µM (inactive); in assay [12], 1.34 µM (inactive). For the same molecule, the GI50 is 2.99 µM (inactive) in assay [15]; 4.11 µM (inactive) in assay [19]; 0.199 µM (active) in [16]; 1.59 µM (inactive) in assay [20]; 1.45 µM (inactive) in assay [17].

For the origin of these results see ChEMBL document CHEMBL1201862, “PubChem BioAssay data set” (2004).
